For 18 compounds, Ki and GI50 results are on record in patent publication US11596639B2, “Substituted indole Mcl-1 inhibitors” (Vanderbilt University, priority 2016, dated 2023).

A word on the pKi: it is the negative decadic logarithm of the Ki, by convention in mol/L.

For experiment [1], the target named is Mcl-1 (Homo sapiens (Human), UniProt Q07820). Nature of the experiment: Fluorescence polarization anisotropy (FPA) competition assay, FITC-Bak or FITC-Bim BH3 peptide. The experiment is classed as binding. As to conditions: read-out: Ki for Inhibition of Mcl-1 by FPA assay. In general terms: Polarisation of emitted light reports the rotation of a fluorescent probe.

Experiment [2] deals with H929 human cancer cell lines. Nature of the experiment: Cellular viability / proliferation (Cell TiterGlo, 72 h). As to conditions: Homo sapiens, NCI-H929, 72 h, read-out: GI50 on cellular proliferation of H929 human cancer cell lines, H929 cells, 72 h, Cell TiterGlo, 10% FBS. The experiment is classed as cell-based. The essentials: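 Cells were seeded at 1,000 cells/well in medium with 10% FBS and dosed 24 h later with a 2-fold serial dilution of compound (top concentration 50 μM, final DMSO <1%).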
In general terms: Cellular ATP, detected with luciferase, serves as a proxy for viable cell number.

Molecules are shown by their SMILES. pKi: −log10 of the molar value.

Mcl-1, sequence (Q07820 172-327): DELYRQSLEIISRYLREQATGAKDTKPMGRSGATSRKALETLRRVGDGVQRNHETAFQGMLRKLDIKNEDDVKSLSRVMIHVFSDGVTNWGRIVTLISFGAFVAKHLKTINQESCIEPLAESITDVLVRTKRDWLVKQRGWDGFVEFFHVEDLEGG

With `Cc1cc(OCCCc2c3n(c4c(-c5c(C)nc(CN6CCCC6)nc5C)c(Cl)ccc24)[C@H](C)CN(c2cn(C)c4ccc(C(=O)O)cc24)C3=O)cc(C)c1Cl` [Example 390, (R)-3-(7-Chloro-10-(3-(4-chloro-3,5-dimethylphenoxy)propyl)-6-(4,6-dimethyl-2-(pyrrolidin-1-ylmethyl)pyrimidin-5-yl)-4-methyl-1-oxo-3,4-dihydropyrazino[1,2-a]indol-2(1H)-yl)-1-methyl-1H-indole-5-carboxylic acid], the pKi in experiment [1] was 8.64. Moreover, the GI50 in experiment [2] was found to be 0.34 µM.

For the compound `Cc1cc(OCCCc2c3n(c4c(-c5c(C)nn(C)c5C)c(Cl)ccc24)[C@H](C)CN(c2cn(C)c4ccc(-c5cnn(C)c5)cc24)C3=O)cc(C)c1Cl` [Example 391, (R)-7-Chloro-10-(3-(4-chloro-3,5-dimethylphenoxy)propyl)-4-methyl-2-(1-methyl-5-(1-methyl-1H-pyrazol-4-yl)-1H-indol-3-yl)-6-(1,3,5-trimethyl-1H-pyrazol-4-yl)-3,4-dihydropyrazino[1,2-a]indol-1(2H)-one], the pKi in experiment [1] was 8.68. Besides, the GI50 in experiment [2] is 0.37 µM.

For the compound `Cc1cc(OCCCc2c3n(c4c(-c5c(C)nn(CCN6CCCC6)c5C)c(Cl)ccc24)[C@H](C)CN(c2cn(C)c4ccc(C(N)=O)cc24)C3=O)cc(C)c1Cl` [Example 392, (R)-3-(7-chloro-10-(3-(4-chloro-3,5-dimethylphenoxy)propyl)-6-(3,5-dimethyl-1-(2-(pyrrolidin-1-yl)ethyl)-1H-pyrazol-4-yl)-4-methyl-1-oxo-3,4-dihydropyrazino[1,2-a]indol-2(1H)-yl)-1-methyl-1H-indole-5-carboxamide], the negative-log Ki (pKi) in experiment [1] was 7.64. Besides, in experiment [2], the GI50 amounted to 0.95 µM.

`Cc1noc(-c2ccc3c(c2)c(N2C[C@@H](C)n4c(c(CCCOc5cc(C)c(Cl)c(C)c5)c5ccc(Cl)c(-c6c(C)nn(C)c6C)c54)C2=O)cn3C)n1` [Example 393, (R)-7-Chloro-10-(3-(4-chloro-3,5-dimethylphenoxy)propyl)-4-methyl-2-(1-methyl-5-(3-methyl-1,2,4-oxadiazol-5-yl)-1H-indol-3-yl)-6-(1,3,5-trimethyl-1H-pyrazol-4-yl)-3,4-dihydropyrazino[1,2-a]indol-1(2H)-one]: the pKi in experiment [1] was 8.64. The GI50 in experiment [2] amounted to 1.2 µM.

Regarding `Cc1cc(OCCCc2c3n(c4c(-c5c(C)nn(C)c5C)c(Cl)ccc24)[C@H](C)CN(c2cn(C)c4ccc(-c5ncccn5)cc24)C3=O)cc(C)c1Cl` [Example 394, (R)-7-Chloro-10-(3-(4-chloro-3,5-dimethylphenoxy)propyl)-4-methyl-2-(1-methyl-5-(pyrimidin-2-yl)-1H-indol-3-yl)-6-(1,3,5-trimethyl-1H-pyrazol-4-yl)-3,4-dihydropyrazino[1,2-a]indol-1(2H)-one], the pKi in experiment [1] was 8.55. The GI50 in experiment [2] is 0.27 µM.

In the case of `Cc1noc(-c2ccc3c(c2)c(N2C[C@@H](C)n4c(c(CCCOc5cc(C)c(Cl)c(C)c5)c5ccc(Cl)c(-c6c(C)ncnc6C)c54)C2=O)cn3C)n1` [Example 395, (R)-7-Chloro-10-(3-(4-chloro-3,5-dimethylphenoxy)propyl)-6-(4,6-dimethylpyrimidin-5-yl)-4-methyl-2-(1-methyl-5-(3-methyl-1,2,4-oxadiazol-5-yl)-1H-indol-3-yl)-3,4-dihydropyrazino[1,2-a]indol-1(2H)-one], the pKi in experiment [1] is 8.66. Besides, in experiment [2], the GI50 is 0.86 µM.

Take `Cc1cc(OCCCc2c3n(c4c(-c5c(C)nc(CN6CCN(C)CC6)nc5C)c(Cl)ccc24)[C@H](C)CN(c2cn(C)c4ccc(C(=O)O)cc24)C3=O)cc(C)c1Cl` [Example 396, (R)-3-(7-Chloro-10-(3-(4-chloro-3,5-dimethylphenoxy)propyl)-6-(4,6-dimethyl-2-((4-methylpiperazin-1-yl)methyl)pyrimidin-5-yl)-4-methyl-1-oxo-3,4-dihydropyrazino[1,2-a]indol-2(1H)-yl)-1-methyl-1H-indole-5-carboxylic acid]: in experiment [1], the pKi is 8.74. Besides, the GI50 in experiment [2] is below 0.2 µM.

In the case of `Cc1cc(OCCCc2c3n(c4c(-c5c(C)nc(CN6CCC(O)C6)nc5C)c(Cl)ccc24)[C@H](C)CN(c2cn(C)c4ccc(C(=O)O)cc24)C3=O)cc(C)c1Cl` (stereo partly drawn) [Example 397, 3-((4R)-7-Chloro-10-(3-(4-chloro-3,5-dimethylphenoxy)propyl)-6-(2-((3-hydroxypyrrolidin-1-yl)methyl)-4,6-dimethylpyrimidin-5-yl)-4-methyl-1-oxo-3,4-dihydropyrazino[1,2-a]indol-2(1H)-yl)-1-methyl-1H-indole-5-carboxylic acid], in experiment [1], the pKi was 8.92. In experiment [2], the GI50 turned out to be 0.34 µM.

As for `Cc1cc(OCCCc2c3n(c4c(-c5c(C)nc(CN6CCOCC6)nc5C)c(Cl)ccc24)[C@H](C)CN(c2cn(C)c4ccc(C(=O)O)cc24)C3=O)cc(C)c1Cl` [Example 398, (R)-3-(7-Chloro-10-(3-(4-chloro-3,5-dimethylphenoxy)propyl)-6-(4,6-dimethyl-2-(morpholinomethyl)pyrimidin-5-yl)-4-methyl-1-oxo-3,4-dihydropyrazino[1,2-a]indol-2(1H)-yl)-1-methyl-1H-indole-5-carboxylic acid], the pKi in experiment [1] was above 9.00. For the same compound, the GI50 in experiment [2] is 0.2 µM.

Take `Cc1cc(N2CCCn3c(c(CCCOc4cc(C)c(Cl)c(C)c4)c4ccc(Cl)c(-c5c(C)ncnc5C)c43)C2=O)c2c(c1)cc(C(=O)O)n2C` [Example 399, 7-(8-Chloro-11-(3-(4-chloro-3,5-dimethylphenoxy)propyl)-7-(4,6-dimethylpyrimidin-5-yl)-1-oxo-4,5-dihydro-1H-[1,4]diazepino[1,2-a]indol-2(3H)-yl)-1,5-dimethyl-1H-indole-2-carboxylic acid]: the pKi in experiment [1] was 8.62. The GI50 in experiment [2] came out at 0.21 µM.

As to `Cc1cc(N2C[C@@H](C)n3c(c(CCCOc4cc(C)c(Cl)c(C)c4)c4ccc(Cl)c(-c5c(C)n[nH]c5C)c43)C2=O)c2c(c1)cc(C(=O)O)n2C` [Example 400, (R)-7-(7-chloro-10-(3-(4-chloro-3,5-dimethylphenoxy)propyl)-6-(3,5-dimethyl-1H-pyrazol-4-yl)-4-methyl-1-oxo-3,4-dihydropyrazino[1,2-a]indol-2(1H)-yl)-1,5-dimethyl-1H-indole-2-carboxylic acid], in experiment [1], the pKi is 8.85. Moreover, the GI50 in experiment [2] stood at 0.43 µM.

`Cc1cc(OCCCc2c3n(c4c(-c5c(C)nn(C)c5C)c(Cl)ccc24)[C@H](C)CN(c2cc(CN4CCCC4)cc4cc(C(=O)O)n(C)c24)C3=O)cc(C)c1Cl` [Example 401, (R)-7-(7-chloro-10-(3-(4-chloro-3,5-dimethylphenoxy)propyl)-4-methyl-1-oxo-6-(1,3,5-trimethyl-1H-pyrazol-4-yl)-3,4-dihydropyrazino[1,2-a]indol-2(1H)-yl)-1-methyl-5-(pyrrolidin-1-ylmethyl)-1H-indole-2-carboxylic acid]: the negative-log Ki (pKi) in experiment [1] is above 9.00. The GI50 in experiment [2] was 0.28 µM.

For `Cc1cc(OCCCc2c3n(c4c(-c5c(C)nn(C)c5C)c(Cl)ccc24)[C@H](C)CN(c2cn(CCN4CCOCC4)c4cc(C(N)=O)ccc24)C3=O)cc(C)c1Cl` [Example 402, (R)-3-(7-Chloro-10-(3-(4-chloro-3,5-dimethylphenoxy)propyl)-4-methyl-1-oxo-6-(1,3,5-trimethyl-1H-pyrazol-4-yl)-3,4-dihydropyrazino[1,2-a]indol-2(1H)-yl)-1-(2-morpholinoethyl)-1H-indole-6-carboxamide], the pKi in experiment [1] is 8.31. Moreover, the GI50 in experiment [2] turned out to be 1.1 µM.

In the case of `Cc1cc(OCCCc2c3n(c4c(-c5c(C)nn(C)c5C)c(Cl)ccc24)[C@H](C)CN(c2cn(C)c4ccc(-c5ncn(C)n5)cc24)C3=O)cc(C)c1Cl` [Example 403, (R)-7-Chloro-10-(3-(4-chloro-3,5-dimethylphenoxy)propyl)-4-methyl-2-(1-methyl-5-(1-methyl-1H-1,2,4-triazol-3-yl)-1H-indol-3-yl)-6-(1,3,5-trimethyl-1H-pyrazol-4-yl)-3,4-dihydropyrazino[1,2-a]indol-1(2H)-one], the pKi in experiment [1] was 8.82. Moreover, in experiment [2], the GI50 is below 0.2 µM.

On to `Cc1cccc(OCCCc2c3n(c4c(-c5c(C)nn(C)c5C)c(Cl)ccc24)[C@H](C)CN(c2cn(C)c4ccc(C(=O)O)cc24)C3=O)c1` [Example 405, (R)-3-(7-Chloro-4-methyl-1-oxo-10-(3-(m-tolyloxy)propyl)-6-(1,3,5-trimethyl-1H-pyrazol-4-yl)-3,4-dihydropyrazino[1,2-a]indol-2(1H)-yl)-1-methyl-1H-indole-5-carboxylic acid], for which the negative logarithm of the Ki (pKi) in experiment [1] was above 9.00. Besides, the GI50 in experiment [2] came to 0.46 µM.

Consider `Cc1cc(OCCCc2c3n(c4c(-c5c(C)nn(C)c5C)c(Cl)ccc24)[C@H](C)CN(c2cn(C)c4ccc(C(=O)O)cc24)C3=O)ccc1Cl` [Example 407, (R)-3-(7-Chloro-10-(3-(4-chloro-3-methylphenoxy)propyl)-4-methyl-1-oxo-6-(1,3,5-trimethyl-1H-pyrazol-4-yl)-3,4-dihydropyrazino[1,2-a]indol-2(1H)-yl)-1-methyl-1H-indole-5-carboxylic acid], for which the pKi in experiment [1] is 8.96. Moreover, the GI50 in experiment [2] was found to be 0.49 µM.

As for `Cc1nn(C)c(C)c1-c1c(Cl)ccc2c(CCCOc3ccccc3)c3n(c12)[C@H](C)CN(c1cn(C)c2ccc(C(=O)O)cc12)C3=O` [Example 408, (R)-3-(7-Chloro-4-methyl-1-oxo-10-(3-phenoxypropyl)-6-(1,3,5-trimethyl-1H-pyrazol-4-yl)-3,4-dihydropyrazino[1,2-a]indol-2(1H)-yl)-1-methyl-1H-indole-5-carboxylic acid], in experiment [1], the pKi was 8.66. The GI50 in experiment [2] came out at 3.2 µM.

Regarding `Cc1nn(C)c(C)c1-c1c(Cl)ccc2c(CCCOc3ccc(Cl)cc3)c3n(c12)[C@H](C)CN(c1cn(C)c2ccc(C(=O)O)cc12)C3=O` [Example 409, (R)-3-(7-Chloro-10-(3-(4-chlorophenoxy)propyl)-4-methyl-1-oxo-6-(1,3,5-trimethyl-1H-pyrazol-4-yl)-3,4-dihydropyrazino[1,2-a]indol-2(1H)-yl)-1-methyl-1H-indole-5-carboxylic acid], the pKi in experiment [1] is 8.89. In experiment [2], the GI50 was determined as 2.8 µM.
